Reference: ChEMBL document CHEMBL3885881, “DrugMatrix”

Organism: Rattus norvegicus
Test: DrugMatrix - Regimen: Daily Repeat
Type: toxicity, organism-based, Sprague-Dawley
Set-up: regimen Daily Repeat, gender Male, age 6-8 weeks
Settings: in vivo, po, route oral GAVAGE, vehicle .5 % CMC; for ALANINE AMINOTRANSFERASE / ALBUMIN / ALKALINE PHOSPHATASE / ASPARTATE AMINOTRANSFERASE / BLOOD UREA NITROGEN / CARBON DIOXIDE / CHLORIDE / CHOLESTEROL / CREATINE PHOSPHOKINASE / CREATININE / GLUCOSE / LACTATE DEHYDROGENASE / LIPASE / PHOSPHORUS / POTASSIUM / SODIUM / TOTAL BILIRUBIN / TOTAL PROTEIN / URIC ACID: tissue Plasma; for ABSOLUTE BASOPHIL / ABSOLUTE EOSINOPHIL / ABSOLUTE LYMPHOCYTE / ABSOLUTE MONOCYTE / ABSOLUTE SEGMENTED NEUTROPHIL / BASOPHIL / EOSINOPHIL / ERYTHROCYTE COUNT / HEMATOCRIT / HEMOGLOBIN / LEUKOCYTE COUNT / LYMPHOCYTE / MEAN CORPUSCULAR HEMOGLOBIN / MEAN CORPUSCULAR HEMOGLOBIN CONCENTRATION / MEAN CORPUSCULAR VOLUME / MONOCYTE / NEUTROPHIL / NUCLEATED RED BLOOD CELLS / PLATELET COUNT: tissue Blood
[1] = 10 mg/kg, 72 h, dose level Low, time 3 day
[2] = 10 mg/kg, 120 h, dose level Low, time 5 day
[3] = 2500 mg/kg, 72 h, dose level High, time 3 day

With `CCOC(=O)[C@H](CCc1ccccc1)N[C@@H](C)C(=O)N1Cc2ccccc2C[C@H]1C(=O)O` the “ALANINE AMINOTRANSFERASE” value [1] was 57.33 u/L, the ALBUMIN [1] was 4.43 G/DL and the “ALKALINE PHOSPHATASE” value [1] was 414 u/L. For the same molecule, the “ASPARTATE AMINOTRANSFERASE” value [1] was 111.67 u/L, the “BLOOD UREA NITROGEN” value [1] was 19.33 mg/dL and the “CARBON DIOXIDE” value [1] was 27 mmol/L. The CHLORIDE [1] was 101.33 MEQ/L, the CHOLESTEROL [1] was 71.67 mg/dL and the “CREATINE PHOSPHOKINASE” value [1] was 1227 u/L. For the same molecule, the CREATININE [1] was 0.15 mg/dL, the GLUCOSE [1] was 179.67 mg/dL and the “LACTATE DEHYDROGENASE” value [1] was 229.67 u/L. For the same molecule, the LIPASE [1] was 10 u/L, the PHOSPHORUS [1] was 12.13 mg/dL and the POTASSIUM [1] was 6.89 MEQ/L. For the same molecule, the SODIUM [1] was 142.53 MEQ/L, the “TOTAL BILIRUBIN” value [1] was 0.23 mg/dL and the “TOTAL PROTEIN” value [1] was 6.1 G/DL. For the same molecule, the “URIC ACID” value [1] was 1.73 mg/dL, the “ABSOLUTE BASOPHIL” value [2] was 0 CELLS/uL and the “ABSOLUTE EOSINOPHIL” value [2] was 0 CELLS/uL. The “ABSOLUTE LYMPHOCYTE” value [2] was 9146.67 CELLS/uL, the “ABSOLUTE MONOCYTE” value [2] was 149.33 CELLS/uL and the “ABSOLUTE SEGMENTED NEUTROPHIL” value [2] was 970.67 CELLS/uL. For the same molecule, the BASOPHIL [2] was 0%, the EOSINOPHIL [2] was 0% and the “ERYTHROCYTE COUNT” value [2] was 5.39 x10E6/uL. The HEMATOCRIT [2] was 34.63%, the HEMOGLOBIN [2] was 13.67 G/DL and the “LEUKOCYTE COUNT” value [2] was 10.27 x10E3/uL. For the same molecule, the LYMPHOCYTE [2] was 89.33%, the “MEAN CORPUSCULAR HEMOGLOBIN” value [2] was 25.4 pg and the “MEAN CORPUSCULAR HEMOGLOBIN CONCENTRATION” value [2] was 39.47 G/DL. For the same molecule, the “MEAN CORPUSCULAR VOLUME” value [2] was 64.27 fL, the MONOCYTE [2] was 1.33% and the NEUTROPHIL [2] was 9.33%. For the same molecule, the “NUCLEATED RED BLOOD CELLS” value [2] was 0 /100WBC, the “PLATELET COUNT” value [2] was 1332.67 x10E3/uL and the “ALANINE AMINOTRANSFERASE” value [2] was 53 u/L. For the same molecule, the ALBUMIN [2] was 4.43 G/DL, the “ALKALINE PHOSPHATASE” value [2] was 351.67 u/L and the “ASPARTATE AMINOTRANSFERASE” value [2] was 77 u/L. The “BLOOD UREA NITROGEN” value [2] was 17.33 mg/dL, the “CARBON DIOXIDE” value [2] was 31.33 mmol/L and the CHLORIDE [2] was 101.33 MEQ/L. For the same molecule, the CHOLESTEROL [2] was 100.67 mg/dL, the “CREATINE PHOSPHOKINASE” value [2] was 265.67 u/L and the CREATININE [2] was 0.14 mg/dL. For the same molecule, the GLUCOSE [2] was 137.33 mg/dL, the “LACTATE DEHYDROGENASE” value [2] was 201.67 u/L and the LIPASE [2] was 10 u/L. For the same molecule, the PHOSPHORUS [2] was 11.8 mg/dL, the POTASSIUM [2] was 6.69 MEQ/L and the SODIUM [2] was 143.93 MEQ/L. The “TOTAL BILIRUBIN” value [2] was 0.23 mg/dL, the “TOTAL PROTEIN” value [2] was 6.3 G/DL and the “URIC ACID” value [2] was 1.2 mg/dL. The “ABSOLUTE BASOPHIL” value [3] was 0 CELLS/uL, the “ABSOLUTE EOSINOPHIL” value [3] was 56.33 CELLS/uL and the “ABSOLUTE LYMPHOCYTE” value [3] was 14978 CELLS/uL. For the same molecule, the “ABSOLUTE MONOCYTE” value [3] was 125.33 CELLS/uL, the “ABSOLUTE SEGMENTED NEUTROPHIL” value [3] was 2373.67 CELLS/uL and the BASOPHIL [3] was 0%. The EOSINOPHIL [3] was 0.33%, the “ERYTHROCYTE COUNT” value [3] was 5.38 x10E6/uL and the HEMATOCRIT [3] was 35.27%. For the same molecule, the HEMOGLOBIN [3] was 13.67 G/DL, the “LEUKOCYTE COUNT” value [3] was 17.53 x10E3/uL and the LYMPHOCYTE [3] was 85.67%. The “MEAN CORPUSCULAR HEMOGLOBIN” value [3] was 25.4 pg, the “MEAN CORPUSCULAR HEMOGLOBIN CONCENTRATION” value [3] was 38.77 G/DL and the “MEAN CORPUSCULAR VOLUME” value [3] was 65.5 fL. For the same molecule, the MONOCYTE [3] was 0.67%, the NEUTROPHIL [3] was 13.33% and the “NUCLEATED RED BLOOD CELLS” value [3] was 0 /100WBC. The “PLATELET COUNT” value [3] was 1317 x10E3/uL, the “ALANINE AMINOTRANSFERASE” value [3] was 63.33 u/L and the ALBUMIN [3] was 4.37 G/DL. The “ALKALINE PHOSPHATASE” value [3] was 310 u/L, the “ASPARTATE AMINOTRANSFERASE” value [3] was 80.67 u/L and the “BLOOD UREA NITROGEN” value [3] was 19.33 mg/dL. For the same molecule, the “CARBON DIOXIDE” value [3] was 28.67 mmol/L, the CHLORIDE [3] was 98.67 MEQ/L and the CHOLESTEROL [3] was 107 mg/dL. For the same molecule, the “CREATINE PHOSPHOKINASE” value [3] was 346.67 u/L, the CREATININE [3] was 0.21 mg/dL and the GLUCOSE [3] was 155.67 mg/dL. For the same molecule, the “LACTATE DEHYDROGENASE” value [3] was 272.33 u/L, the LIPASE [3] was 12.33 u/L and the PHOSPHORUS [3] was 12.8 mg/dL. The POTASSIUM [3] was 6.92 MEQ/L, the SODIUM [3] was 140.37 MEQ/L and the “TOTAL BILIRUBIN” value [3] was 0.17 mg/dL. The “TOTAL PROTEIN” value [3] was 6.17 G/DL and the “URIC ACID” value [3] was 1.6 mg/dL.
